Laboratory results taken from US20070004660A1, “Synergistic Modulation of Flt3 Kinase Using Alkylquinolines and Alkylquinazolines” (priority 2005, published 2007).

Each molecule was assayed against T1, isolated kinase domain of the human FLT3 receptor (a.a. 571-993) (Homo sapiens, UniProt P36888) (assay: FLT3 fluorescence polarization kinase assay). Conditions: 150 uM ATP; uncertainty ±10%.
T1 construct: human FLT3 receptor (a.a. 571-993)
T1 sequence (P36888 571-993): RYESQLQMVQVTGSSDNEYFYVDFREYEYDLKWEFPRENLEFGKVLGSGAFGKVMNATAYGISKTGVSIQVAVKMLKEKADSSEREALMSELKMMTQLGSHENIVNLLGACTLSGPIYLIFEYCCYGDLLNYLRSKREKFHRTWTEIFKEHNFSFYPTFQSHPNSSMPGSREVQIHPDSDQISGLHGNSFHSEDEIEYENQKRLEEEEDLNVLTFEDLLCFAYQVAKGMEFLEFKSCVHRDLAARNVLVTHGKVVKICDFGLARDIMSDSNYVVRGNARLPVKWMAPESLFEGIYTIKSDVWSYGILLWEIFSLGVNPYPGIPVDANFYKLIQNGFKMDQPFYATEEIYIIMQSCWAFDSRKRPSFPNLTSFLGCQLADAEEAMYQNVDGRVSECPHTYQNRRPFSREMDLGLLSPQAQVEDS
Type: biochemical
In the case of CC(C)c1ccc(NC(=O)N2CCC(c3ncnc4cc(Cl)ccc34)CC2)cc1 [Example 30, 4-(7-Chloro-quinazolin-4-yl)-piperidine-1-carboxylic acid (4-isopropyl-phenyl)-amide], the IC50 is reported as 0.035 µM.
CC(C)Oc1ccc(NC(=O)N2CCC(c3ncnc4cc(OCCN5CCCCC5)ccc34)CC2)cc1 [Example 34, 4-(7-(2-Piperindin-1-yl-ethoxy)-quinazolin-4-yl)-piperidine-1-carboxylic acid (4-isopropoxy-phenyl)-amide] showed an IC50 of 0.049 µM.
Molecule O=C(Nc1ccc(N2CCCC2)cc1)N1CCC(c2ncnc3cc(N4CCOCC4)c(F)cc23)CC1 [Compound 210, 4-(6-Fluoro-7-morpholin-4-yl-quinazolin-4-yl)-piperidine-1-carboxylic acid (4-pyrrolidin-1-yl-phenyl)-amide] has an IC50 of 0.021 µM.
With COc1cc2c(C3CCN(C(=O)Nc4ccc(N5CCCC5)cc4)CC3)ncnc2cc1N1CCOCC1 [Compound 211, 4-(6-Methoxy-7-morpholin-4-yl-quinazolin-4-yl)-piperidine-1-carboxylic acid (4-pyrrolidin-1-yl-phenyl)-amide] the IC50 was 0.008 µM.
In the case of COc1cc2ncnc(C3CCN(C(=O)Nc4ccc(N(C)C)cc4)CC3)c2cc1OC [Example 26, 4-(6,7-Dimethoxy-quinazolin-4-yl)-piperidine-1-carboxylic acid (4-dimethylamino-phenyl)-amide], the IC50 is reported as 0.2 µM.
COc1cc2c(C3CCN(C(=O)Nc4ccc(N5CCCC5)cc4)CC3)ncnc2cc1OCCN1CCCC1=O [Compound 209, 4-{6-Methoxy-7-[2-(2-oxo-pyrrolidin-1-yl)-ethoxy]-quinazolin-4-yl}-piperidine-1-carboxylic acid (4-pyrrolidin-1-yl-phenyl)-amide] showed an IC50 of 0.017 µM.
With COc1ccc2c(C3CCN(C(=O)Nc4ccc(OC(C)C)cc4)CC3)ncnc2c1 [Example 31, 4-(7-Methoxy-quinazolin-4-yl)-piperidine-1-carboxylic acid (4-isopropoxy-phenyl)-amide] the IC50 was 0.021 µM.
For CC(C)Oc1ccc(NC(=O)N2CCC(c3ncnc4cc(OCCCN5CCN(C)CC5)ccc34)CC2)cc1 [Example 39], the IC50 was 0.015 µM.
With CCN(CC)CCOc1ccc2c(C3CCN(C(=O)Nc4ccc(OC(C)C)cc4)CC3)ncnc2c1 [Example 35, 4-[7-(2-Diethylamino-ethoxy)-quinazolin-4-yl)-piperidine-1-carboxylic acid (4-isopropoxy-phenyl)-amide] the IC50 was 0.047 µM.
COc1cc2c(C3CCN(C(=O)Nc4ccc(N5CCOCC5)cc4)CC3)ncnc2cc1OCCCN1CCN(C)CC1 [Compound 207, 4-{6-Methoxy-7-[3-(4-methyl-piperazin-1-yl)-propoxy]-quinazolin-4-yl}-piperidine-1-carboxylic acid (4-morpholin-4-yl-phenyl)-amide] showed an IC50 of 0.029 µM.
Work on CC(C)Oc1ccc(NC(=O)N2CCC(c3ncnc4cc(OCCCN5CCCCC5)ccc34)CC2)cc1 [Example 33, 4-(7-(3-Piperidin-1-yl-propoxy)-quinazolin-4-yl)-piperidine-1-carboxylic acid (4-isopropoxy-phenyl)-amide] yielded an IC50 of 0.011 µM.
COc1cc2ncnc(C3CCN(C(=O)Cc4ccc(C(C)C)cc4)CC3)c2cc1OC [Example 28, 1-[4-(6,7-Dimethoxy-quinazolin-4-yl)-piperidin-1-yl]-2-(4-isopropyl-phenyl)-ethanone] showed an IC50 of 0.008 µM.
Molecule CCN(CC)CCCOc1ccc2c(C3CCN(C(=O)Nc4ccc(OC(C)C)cc4)CC3)ncnc2c1 [Example 36, 4-[7-(3-Diethylamino-propoxy)-quinazolin-4-yl)-piperidine-1-carboxylic acid (4-isopropoxy-phenyl)-amide] has an IC50 of 0.018 µM.
Molecule COc1cc2c(C3CCN(C(=O)Nc4ccc(N5CCOCC5)cc4)CC3)ncnc2cc1N1CCOCC1 [Compound 212, 4-(6-Methoxy-7-morpholin-4-yl-quinazolin-4-yl)-piperidine-1-carboxylic acid (4-morpholin-4-yl-phenyl)-amide] has an IC50 of 0.239 µM.
CC(C)Oc1ccc(NC(=O)N2CCC(c3ncnc4cc(OCCN5CCOCC5)ccc34)CC2)cc1 [Example 37] was tested, and the IC50 was 0.007 µM.
Molecule COCCOc1ccc(NC(=O)N2CCC(c3ncnc4cc(OC)c(OC)cc34)CC2)cc1 [Example 40, 4-(6,7-Dimethoxy-quinazolin-4-yl)-piperidine-1-carboxylic acid [4-(2-methoxy-ethoxy)-phenyl]-amide] has an IC50 of 0.91 µM.
COc1cc2ncnc(C3CCN(C(=O)Nc4ccc(-n5ccnc5)cc4)CC3)c2cc1OC [Example 3, 4-(6,7-Dimethoxy-quinazolin-4-yl)-piperidine-1-carboxylic acid (4-imidazol-1-yl-phenyl)-amide] was tested, and the IC50 was 3.9 µM.
In the case of COc1cc2ncnc(C3CCN(C(=O)Nc4ccc(I)cc4)CC3)c2cc1OC [Example 2, 4-(6,7-Dimethoxy-quinazolin-4-yl)-piperidine-1-carboxylic acid (4-iodo-phenyl)-amide], the IC50 is reported as 0.21 µM.
With CC(C)Oc1ccc(NC(=O)N2CCC(c3ncnc4cc(OCCCN5CCOCC5)ccc34)CC2)cc1 [Example 38] the IC50 was 0.006 µM.
With COc1ccc2c(C3CCN(C(=O)Nc4ccc(C(C)C)cc4)CC3)ncnc2c1 [Example 32, 4-(7-Methoxy-quinazolin-4-yl)-piperidine-1-carboxylic acid (4-isopropyl-phenyl)-amide] the IC50 was 0.011 µM.
With CC(C)Oc1ccc(NC(=O)N2CCC(c3ncnc4cc(Cl)ccc34)CC2)cc1 [Example 29, 4-(7-Chloro-quinazolin-4-yl)-piperidine-1-carboxylic acid (4-isopropoxy-phenyl)-amide] the IC50 was 0.15 µM.
COc1cc2ncnc(C3CCN(C(=O)Nc4ccc(NC(C)=O)cc4)CC3)c2cc1OC [Example 25, 4-(6,7-Dimethoxy-quinazolin-4-yl)-piperidine-1-carboxylic acid (4-acetylamino-phenyl)-amide] was tested, and the IC50 was 6.1 µM.
Molecule O=C1CCCN1CCOc1cc2ncnc(C3CCN(C(=O)Nc4ccc(N5CCCC5)cc4)CC3)c2cc1F [Compound 206, 4-{6-Fluoro-7-[2-(2-oxo-pyrrolidin-1-yl)-ethoxy]-quinazolin-4-yl}-piperidine-1-carboxylic acid (4-pyrrolidin-1-yl-phenyl)-amide] has an IC50 of 0.028 µM.
